The source of these data is ChEMBL document CHEMBL1143759, “Losartan and its interaction with copper(II): biological effects” (2007).

The nature of assay [1]: Inhibition of cell proliferation of mouse MC3T3E1 cells at 500 uM. More on the design: scale not given: the % may be the effect or the level left. It is filed as functional, MC3T3-E1.
A short description of assay [2]: Inhibition of cell proliferation of rat UMR106 cells at 500 uM. It is filed as functional. More on the design: scale not given: the % may be the effect or the level left.

The structures appear in SMILES notation.

In the case of `CCCCc1nc(Cl)c(CO)n1Cc1ccc(-c2ccccc2-c2nnn[n-]2)cc1.[K+]` [LOSARTAN POTASSIUM], the Activity in assay [1] and in assay [2] was 10% throughout.
